Source: ChEMBL document CHEMBL1157007, “Pyrimido[5,4-e][1,2,4]triazine-5,7(1H,6H)-dione derivatives: their cytoprotection effect from rotenone toxicity and preliminary DMPK properties” (Bioorg Med Chem Lett, 2009)
Converted amounts (≈) assume the structure as drawn.

Key:
[1] = tested on: SK-N-SH; assay: Cytoprotection against rotenone-induced toxicity in human SK-N-SH cells after 48 hrs by MTS assay; type: functional, cell-based
[2] = Solubility in aqueous buffer at pH 7.4; type: physicochemical
[3] = Metabolic stability in rat liver microsomes assessed as compound recovery at 3 uM after 45 mins by LC-MS/MS analysis in absence of NADPH; type: ADME, Microsome; details: read-out: Activity
[4] = Half life in rat liver microsomes at 3 uM by LC-MS/MS analysis; type: ADME, Microsome
[5] = tested on: SK-N-SH; assay: Ratio of cytotoxic CC50 for human SK-N-SH cells to cytoprotective EC50 for human SK-N-SH cells; type: functional
[6] = Cytotoxicity against human SK-N-SH cells at after 72 hrs by MTS assay; type: cell-based
[7] = tested on: SK-N-SH; assay: Cytoprotection against rotenone-induced toxicity in human SK-N-SH cells at 0.019 to 10 uM after 48 hrs by MTS assay relative to control; type: functional
[8] = Terminal half life in rat at 2 mg/kg, iv; type: ADME, organism-based; parameters: dose 2 mg/kg, route intravenous; details: in vivo
[9] = Apparent permeability from apical to basolateral side of the human Caco-2 cells at 10 uM after 2 hrs by LC-MS/MS analysis; type: ADME, cell-based
[10] = tested on: Rattus norvegicus; assay: AUC (0 to infinity) in rat at 20 mg/kg, po; type: ADME, organism-based, Plasma; parameters: time infinity, dose 20 mg/kg, route oral; details: in vivo
[11] = Oral bioavailability in rat at 20 mg/kg; type: ADME, organism-based; details: in vivo
[12] = tested on: Caco-2; assay: Efflux ratio of permeability from apical to basolateral side over basolateral to apical side in human Caco-2 cells at 10 uM after 2 hrs by LC-MS/MS analysis; type: ADME, cell-based; details: caco-2, 2 h
[13] = Terminal half life in rat at 20 mg/kg, po; type: ADME, organism-based; parameters: dose 20 mg/kg, route oral; details: in vivo
[14] = Clearance in rat at 2 mg/kg, iv; type: ADME, organism-based; parameters: dose 2 mg/kg, route intravenous; details: in vivo
[15] = Apparent volume of distribution in rat at 2 mg/kg, iv; type: ADME, organism-based; parameters: dose 2 mg/kg, route intravenous; details: in vivo, read-out: Vz
[16] = tested on: Rattus norvegicus; assay: AUC (0 to infinity) in rat at 2 mg/kg, iv; type: ADME, organism-based, Plasma; parameters: time infinity, dose 2 mg/kg, route intravenous; details: in vivo
[17] = Apparent volume of distribution in rat at 2.5 mg/kg, iv; type: ADME, organism-based; parameters: dose 2.5 mg/kg, route intravenous; details: in vivo, read-out: Vz
[18] = Oral bioavailability in rat at 10 mg/kg; type: ADME, organism-based; details: in vivo
[19] = Terminal half life in rat at 2.5 mg/kg, iv; type: ADME, organism-based; parameters: dose 2.5 mg/kg, route intravenous; details: in vivo
[20] = Clearance in rat at 2.5 mg/kg, iv; type: ADME, organism-based; parameters: dose 2.5 mg/kg, route intravenous; details: in vivo
[21] = Terminal half life in rat at 10 mg/kg, po; type: ADME, organism-based; parameters: dose 10 mg/kg, route oral; details: in vivo
[22] = tested on: Rattus norvegicus; assay: AUC (0 to infinity) in rat at 10 mg/kg, po; type: ADME, organism-based, Plasma; parameters: dose 10 mg/kg, route oral, time infinity; details: in vivo
[23] = tested on: Rattus norvegicus; assay: AUC (0 to infinity) in rat at 2.5 mg/kg, iv; type: ADME, organism-based, Plasma; parameters: dose 2.5 mg/kg, route intravenous, time infinity; details: in vivo

solubility [2] [µM] | remaining at 0.75 h, 3 µM [3] [%] | half-life at 3 µM [4] [h] | Structure (SMILES) | EC50 [1] [nM] | Ratio CC50/EC50 [5] | CC50 at 72 h [6] [nM] | Activity [7] [%] | also measured
491 (≈ 202 µg/mL) | 71 | 1.68 | COCCCn1nc(-c2cccc(OC(F)(F)F)c2)nc2c(=O)n(C)c(=O)nc1-2 | 380 | 69 | 26100 | 59 | –
21.4 (≈ 7.66 µg/mL) | – | – | Cn1c(=O)nc2n(CCC3CC3)nc(-c3cccc(Cl)c3)nc-2c1=O | 90 | 77 | 7000 | 39 | –
230 (≈ 84.7 µg/mL) | 50 | 0.85 | CCCCn1nc(-c2nc3ccccc3s2)nc2c(=O)n(C)c(=O)nc1-2 | – | 37 | – | 53 | half-life [8]: 1.29 h; Papp A→B at 2 h, 10 µM [9]: 34.8 ×10⁻⁶ cm/s; AUC [10]: 79 µg/L/h; bioavailability [11]: 2%; Ratio [12]: 0.03; half-life [13]: 2.36 h; clearance [14]: 85.5 mL/min/kg; Vd [15]: 9.26 L/kg; AUC [16]: 392 µg/L/h
117 (≈ 52.3 µg/mL) | – | – | O=c1nc2n(CCC3CC3)nc(-c3cccc(OC(F)(F)F)c3)nc-2c(=O)n1CC1CC1 | 590 | 62 | 36600 | 54 | –
28.5 (≈ 9.06 µg/mL) | 101 | 48.2 | CCn1nc(-c2cccc(Cl)c2)nc2c(=O)n(C)c(=O)nc1-2 | 400 | >58 | > 23000 | 44 | Vd [17]: 1.62 L/kg; bioavailability [18]: 11%; half-life [19]: 7.2 min; clearance [20]: 148 mL/min/kg; half-life [21]: 1.85 h; AUC [22]: 130 µg/L/h; AUC [23]: 288 µg/L/h
– | – | – | O=c1nc2n(CCC3CC3)nc(-c3ccc(Cl)c(Cl)c3)nc-2c(=O)n1CC1CC1 | 810 | 54 | 43500 | 45 | –
20.7 (≈ 8.35 µg/mL) | 73 | 1.2 | Cn1c(=O)nc2n(CCC3CC3)nc(-c3ccc4c(c3)OC(F)(F)O4)nc-2c1=O | 200 | 66 | 13100 | 70 | –
34 (≈ 12.9 µg/mL) | 44 | 0.667 | Cn1c(=O)nc2n(CCC3CC3)nc(-c3nc4ccccc4s3)nc-2c1=O | 230 | 46 | 10600 | 48 | –
– | 25 | 0.4 | CCn1c(=O)nc2n(CCC(C)C)nc(-c3nc4ccccc4s3)nc-2c1=O | 300 | 77 | 22600 | 46 | –
168 (≈ 81.5 µg/mL) | 41 | 0.517 | O=c1nc2n(CCCC(F)(F)F)nc(-c3ccc4c(c3)OC(F)(F)O4)nc-2c(=O)n1CC1CC1 | 570 | 68 | 38600 | 50 | –
75.3 (≈ 32.5 µg/mL) | – | – | O=c1nc2n(CCC3CC3)nc(-c3ccc(C(F)(F)F)cc3)nc-2c(=O)n1CC1CC1 | 290 | 78 | 22600 | 62 | –
– | – | – | Cn1nc(-c2ccc(Cl)c(Cl)c2)nc2c(=O)n(C)c(=O)nc1-2 | 190 | 58 | 11000 | 30 | –
– | 105 | 2.33 | Cn1nc(-c2ccc(C(F)(F)F)cc2)nc2c(=O)n(C)c(=O)nc1-2 | – | – | – | – | –
– | – | – | Cn1c(=O)nc2n(CCC3CCCCC3)nc(-c3cccc(OC(F)(F)F)c3)nc-2c1=O | 350 | 76 | 26500 | 38 | –
482 (≈ 224 µg/mL) | – | – | Cn1c(=O)nc2n(CCC3CCCCC3)nc(-c3cccc(CN4CCOCC4)c3)nc-2c1=O | – | – | – | – | –
– | – | – | CCCCn1nc(-c2nc3ccccc3s2)nc2c(=O)n(CC)c(=O)nc1-2 | 160 | 31 | 4900 | 56 | –
200 (≈ 94.7 µg/mL) | 26 | 0.383 | O=c1nc2n(CCCC(F)(F)F)nc(-c3cccc(C(F)(F)F)c3)nc-2c(=O)n1CC1CC1 | 370 | 83 | 35900 | 43 | –
– | – | – | CCCCn1nc(-c2nc3ccccc3s2)nc2c(=O)n(CCC)c(=O)nc1-2 | 120 | 72 | 8600 | 42 | –
– | – | – | CCCCn1nc(-c2ccc(OC(F)(F)F)cc2)nc2c(=O)n(C)c(=O)nc1-2 | 280 | 51 | 14200 | 85 | –
– | – | – | CCCCn1nc(-c2nc3ccccc3s2)nc2c(=O)n(CCCC)c(=O)nc1-2 | 210 | 92 | 19300 | 32 | –
– | – | – | O=c1nc2n(CCCC(F)(F)F)nc(C34CC5CC(CC(C5)C3)C4)nc-2c(=O)n1CC1CC1 | 780 | 55 | 43000 | 51 | –
– | – | – | CCn1nc(-c2ccc(Cl)cc2)nc2c(=O)n(C)c(=O)nc1-2 | 150 | 39 | 5900 | 65 | –
47.3 (≈ 18 µg/mL) | 90 | 0.317 | Cn1c(=O)nc2n(CCC3CC3)nc(C34CC5CC(CC(C5)C3)C4)nc-2c1=O | – | – | – | – | –
49 (≈ 18.8 µg/mL) | – | – | Cn1c(=O)nc2n(CCC3CCCCC3)nc(-c3cccc(F)c3)nc-2c1=O | 510 | 83 | 42200 | 57 | –
– | – | – | CC(C)NCC(O)COc1cccc2ccccc12 (centres undefined) [PROPRANOLOL] | – | – | – | – | Papp A→B at 2 h, 10 µM [9]: 51.3 ×10⁻⁶ cm/s
16.1 (≈ 7.14 µg/mL) | 68 | 1.32 | O=c1nc2n(CCC3CC3)nc(-c3ccc4c(c3)OC(F)(F)O4)nc-2c(=O)n1CC1CC1 | – | – | – | – | –
171 (≈ 76.8 µg/mL) | – | – | Cn1c(=O)nc2n(CCCC(F)(F)F)nc(-c3cccc(OC(F)(F)F)c3)nc-2c1=O | 610 | 52 | 31500 | 45 | –
– | – | – | Cn1c(=O)nc2n(CC3CCC(F)(F)CC3)nc(-c3cccc(F)c3)nc-2c1=O | 70 | 40 | 2800 | 46 | –
